{"source": "ChEMBL document CHEMBL5532697", "about": "“Imidazopyrimidine: from a relatively exotic scaffold to an evolving structural motif in drug discovery” (RSC Med Chem, 2024)", "key": {"Albumin": {"biological_target": "Albumin (Homo sapiens, UniProt P02768)", "sequence (P02768 whole entry)": "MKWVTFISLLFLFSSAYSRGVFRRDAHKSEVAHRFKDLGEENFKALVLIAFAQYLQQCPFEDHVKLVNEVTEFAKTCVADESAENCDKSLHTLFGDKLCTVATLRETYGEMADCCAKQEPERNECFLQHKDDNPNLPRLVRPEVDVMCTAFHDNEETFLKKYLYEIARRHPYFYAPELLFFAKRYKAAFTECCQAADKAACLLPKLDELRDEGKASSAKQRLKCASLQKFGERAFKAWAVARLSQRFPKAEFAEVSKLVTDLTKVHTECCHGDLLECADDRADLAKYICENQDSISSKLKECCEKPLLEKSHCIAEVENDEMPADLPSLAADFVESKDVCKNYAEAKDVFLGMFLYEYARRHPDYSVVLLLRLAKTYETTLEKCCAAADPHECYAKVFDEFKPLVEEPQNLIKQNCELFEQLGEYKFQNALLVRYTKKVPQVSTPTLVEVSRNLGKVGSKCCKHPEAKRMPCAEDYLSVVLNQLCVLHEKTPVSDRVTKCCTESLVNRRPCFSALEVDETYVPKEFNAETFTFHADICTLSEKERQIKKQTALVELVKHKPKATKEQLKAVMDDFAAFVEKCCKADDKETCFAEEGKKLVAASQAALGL", "assay": "Inhibition of Albumin (unknown origin) denaturation at 100 uM relative to control"}, "[1]": {"biological_target": "cAMP and cAMP-inhibited cGMP 3',5'-cyclic phosphodiesterase 10A (Homo sapiens, UniProt Q9Y233)", "sequence (Q9Y233 whole entry)": "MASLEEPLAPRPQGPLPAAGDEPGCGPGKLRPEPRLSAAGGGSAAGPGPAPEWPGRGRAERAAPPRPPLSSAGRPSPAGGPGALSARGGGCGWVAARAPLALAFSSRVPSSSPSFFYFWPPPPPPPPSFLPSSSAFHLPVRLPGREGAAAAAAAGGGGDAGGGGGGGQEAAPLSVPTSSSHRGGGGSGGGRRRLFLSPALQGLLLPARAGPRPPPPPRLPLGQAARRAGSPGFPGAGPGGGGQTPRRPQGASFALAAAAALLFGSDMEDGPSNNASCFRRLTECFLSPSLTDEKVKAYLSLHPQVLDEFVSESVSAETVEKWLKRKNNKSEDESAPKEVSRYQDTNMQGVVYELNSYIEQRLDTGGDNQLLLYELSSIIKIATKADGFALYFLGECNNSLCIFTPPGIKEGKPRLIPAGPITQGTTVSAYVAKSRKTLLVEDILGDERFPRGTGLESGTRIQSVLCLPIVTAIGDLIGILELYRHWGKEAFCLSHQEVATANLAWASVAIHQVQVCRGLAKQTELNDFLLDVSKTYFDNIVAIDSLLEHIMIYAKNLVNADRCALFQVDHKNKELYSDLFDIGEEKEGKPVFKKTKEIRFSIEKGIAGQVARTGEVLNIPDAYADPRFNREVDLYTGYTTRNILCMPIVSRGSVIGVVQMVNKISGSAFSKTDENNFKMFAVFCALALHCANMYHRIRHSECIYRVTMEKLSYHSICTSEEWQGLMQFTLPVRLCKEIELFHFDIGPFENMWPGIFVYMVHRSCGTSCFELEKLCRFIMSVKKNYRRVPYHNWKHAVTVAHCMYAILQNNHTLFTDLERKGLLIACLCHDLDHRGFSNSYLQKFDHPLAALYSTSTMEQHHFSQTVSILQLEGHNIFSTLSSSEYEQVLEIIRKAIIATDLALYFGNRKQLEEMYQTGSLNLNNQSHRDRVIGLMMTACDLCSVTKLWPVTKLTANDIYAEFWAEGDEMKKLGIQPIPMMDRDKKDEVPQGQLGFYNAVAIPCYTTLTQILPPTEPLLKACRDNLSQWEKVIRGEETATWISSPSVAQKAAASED", "assay": "Inhibition of full length human PDE10A incubated for 1 hr by topcount Scintillation plate reader analysis"}, "BK polyomavirus": {"test_system": "BK polyomavirus", "assay": "Antiviral activity against BK polyomavirus MM infected in human HFF cells assessed as reduction in viral growth incubated for 7 days", "type": "functional, organism-based", "settings": "Betapolyomavirus hominis, 168 h"}, "[2]": {"assay": "Cytotoxicity against human HFF cells assessed as cell growth inhibition by celltiter-glo assay", "type": "toxicity, cell-based"}, "A549 [3]": {"test_system": "A549", "assay": "Antiproliferative activity against human A549 cells assessed as inhibition of cell growth by MTT assay", "type": "functional, cell-based"}, "MCF7": {"test_system": "MCF7", "assay": "Antiproliferative activity against human MCF7 cells assessed as inhibition of cell growth incubated for 48 hrs by alamarblue staining based assay", "type": "functional", "settings": "MCF7, 48 h"}, "COLO 205": {"test_system": "COLO 205", "assay": "Antiproliferative activity against human COLO 205 cells assessed as inhibition of cell growth incubated for 48 hrs by alamarblue staining based assay", "type": "functional", "settings": "COLO 205, 48 h"}, "A549 [4]": {"test_system": "A549", "assay": "Antiproliferative activity against human A549 cells assessed as inhibition of cell growth incubated for 48 hrs by alamarblue staining based assay", "type": "functional", "settings": "A549, 48 h"}, "Pyruvate kinase PKM": {"biological_target": "Pyruvate kinase PKM (Homo sapiens, UniProt P14618)", "sequence (P14618 whole entry)": "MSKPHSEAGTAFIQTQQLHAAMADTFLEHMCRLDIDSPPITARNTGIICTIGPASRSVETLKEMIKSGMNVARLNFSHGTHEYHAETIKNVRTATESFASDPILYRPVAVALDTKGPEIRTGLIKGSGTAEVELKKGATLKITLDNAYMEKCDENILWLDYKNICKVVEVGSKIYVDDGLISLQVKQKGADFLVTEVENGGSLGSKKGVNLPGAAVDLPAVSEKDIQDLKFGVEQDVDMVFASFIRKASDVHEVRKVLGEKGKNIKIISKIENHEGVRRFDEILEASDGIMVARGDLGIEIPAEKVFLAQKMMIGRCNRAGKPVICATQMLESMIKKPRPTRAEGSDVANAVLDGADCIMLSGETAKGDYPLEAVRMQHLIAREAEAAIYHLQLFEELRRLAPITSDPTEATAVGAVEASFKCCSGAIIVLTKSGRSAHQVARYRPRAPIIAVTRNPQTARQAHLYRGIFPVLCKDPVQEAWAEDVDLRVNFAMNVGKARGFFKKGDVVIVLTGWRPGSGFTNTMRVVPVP", "assay": "Inhibition of recombinant PKM2 (unknown origin)"}, "Candida albicans [5]": {"test_system": "Candida albicans", "assay": "Antifungal activity against Candida albicans NCPF 400034 assessed as inhibition of fungal growth incubated for 48 hrs", "type": "functional"}, "Kluyveromyces marxianus [6]": {"test_system": "Kluyveromyces marxianus", "assay": "Antifungal activity against Candida keyfer […] 410004 assessed as inhibition of fungal growth incubated for 48 hrs", "type": "functional"}, "Cryptococcus neoformans": {"test_system": "Cryptococcus neoformans", "assay": "Antifungal activity against Cryptococcus neoformans NCPF 250316 assessed as inhibition of fungal growth incubated for 48 hrs", "type": "functional"}, "Aspergillus niger": {"test_system": "Aspergillus niger", "assay": "Antifungal activity against Aspergillus niger assessed as inhibition of fungal growth incubated for 48 hrs", "type": "functional"}, "Neurospora crassa": {"test_system": "Neurospora crassa", "assay": "Antifungal activity against Neurospora crassa assessed as inhibition of fungal growth incubated for 48 hrs", "type": "functional"}, "Kluyveromyces marxianus [7]": {"test_system": "Kluyveromyces marxianus", "assay": "Synergetic antifungal activity against Candida keyfer […] 410004 assessed as fractional inhibitory concentration index incubated for 24 hrs in the presence of amphotericin B by checkerboard microdilution method", "type": "functional"}, "Candida albicans [8]": {"test_system": "Candida albicans", "assay": "Antifungal activity against Candida albicans ATCC 10231 assessed as reduction in fungal growth incubated for 24 hrs by CLSI based assay", "type": "functional"}, "Candida dubliniensis": {"test_system": "Candida dubliniensis", "assay": "Antifungal activity against Candida dubliniensis CD36 assessed as reduction in fungal growth incubated for 24 hrs by CLSI based assay", "type": "functional"}, "[9]": {"test_system": "Meyerozyma guilliermondii", "assay": "Antifungal activity against Meyerozyma guilliermondii assessed as reduction in fungal growth incubated for 24 hrs by CLSI based assay", "type": "functional"}, "Kluyveromyces marxianus [10]": {"test_system": "Kluyveromyces marxianus", "assay": "Antifungal activity against Candida kefyr assessed as reduction in fungal growth incubated for 24 hrs by CLSI based assay", "type": "functional"}, "Nakaseomyces glabratus": {"test_system": "Nakaseomyces glabratus", "assay": "Antifungal activity against Candida glabrata CBS138 assessed as reduction in fungal growth incubated for 24 hrs by CLSI based assay", "type": "functional"}, "Pichia kudriavzevii": {"test_system": "Pichia kudriavzevii", "assay": "Antifungal activity against Candida krusei ATCC 6358 assessed as reduction in fungal growth incubated for 24 hrs by CLSI based assay", "type": "functional"}, "Candida tropicalis": {"test_system": "Candida tropicalis", "assay": "Antifungal activity against Candida tropicalis MYA-3404 assessed as reduction in fungal growth incubated for 24 hrs by CLSI based assay", "type": "functional"}, "Aorta": {"test_system": "Aorta", "assay": "Vasorelaxant activity in rabbit aorta assessed as inhibition of phenylephrine-induced contraction", "type": "functional, tissue-based", "settings": "Oryctolagus cuniculus"}}}
{"compound": "Clc1ccc(-c2cn3cccnc3n2)cc1", "values": [{"measurement": "inhibition at 100 µM", "setting": "Albumin", "value": 41.7, "unit": "%"}]}
{"compound": "COc1ccc(-c2cn3cccnc3n2)cc1", "values": [{"measurement": "inhibition at 100 µM", "setting": "Albumin", "value": 40.9, "unit": "%"}]}
{"compound": "Cc1ccc(-c2cn3cccnc3n2)cc1", "values": [{"measurement": "inhibition at 100 µM", "setting": "Albumin", "value": 82.9, "unit": "%"}]}
{"compound": "Cc1c(C(=O)N2CCCC2)cnn1C(=O)Nc1ccn2cc(-c3ccccc3)nc2n1", "values": [{"measurement": "IC50", "setting": "[1]", "value": 0.003, "unit": "µM"}]}
{"compound": "Cc1c(C(=O)NCc2c[nH]cn2)cnn1C(=O)Nc1ccn2cc(-c3ccccc3)nc2n1", "values": [{"measurement": "IC50", "setting": "[1]", "value": 0.002, "unit": "µM"}]}
{"compound": "CS(=O)(=O)C1=CN(Cc2ccccc2)C(=O)N2CCN=C12", "values": [{"measurement": "EC50", "setting": "BK polyomavirus", "value": 0.66, "unit": "µM"}, {"measurement": "CC50", "setting": "[2]", "value": "> 150", "unit": "µM"}]}
{"compound": "Cc1c(C(=O)N2CCC2)cnn1C(=O)Nc1ccn2cc(-c3ccc(Cl)s3)nc2n1", "values": [{"measurement": "IC50", "setting": "[1]", "value": 0.004, "unit": "µM"}]}
{"compound": "Cc1ccc(S(=O)(=O)C2=CN(c3ccccc3)C(=O)N3CCN=C23)cc1", "values": [{"measurement": "EC50", "setting": "BK polyomavirus", "value": 93, "unit": "µM"}, {"measurement": "CC50", "setting": "[2]", "value": "> 150", "unit": "µM"}]}
{"compound": "CC(=O)NC1(Cc2ccc(O)cc2)C(=O)N=C2N=CC=CN21", "note": "(centres undefined)", "values": [{"measurement": "IC50", "setting": "A549 [3]", "value": 6.4, "unit": "µM"}]}
{"compound": "COc1ccccc1N1CCN(CC(=O)c2cnc3ncccn23)CC1", "values": [{"measurement": "IC50", "setting": "MCF7", "value": 12.2, "unit": "µM"}, {"measurement": "IC50", "setting": "COLO 205", "value": 64.8, "unit": "µM"}, {"measurement": "IC50", "setting": "A549 [4]", "value": 26.2, "unit": "µM"}, {"measurement": "IC50", "setting": "Pyruvate kinase PKM", "value": 0.027, "unit": "µM"}]}
{"compound": "CC(=O)NC1(Cc2cccc3ccccc23)C(=O)N=C2N=CC=CN21", "note": "(centres undefined)", "values": [{"measurement": "IC50", "setting": "A549 [3]", "value": 2.6, "unit": "µM"}]}
{"compound": "O=C(CN1CCN(c2ccccc2)CC1)c1cnc2ncccn12", "values": [{"measurement": "IC50", "setting": "MCF7", "value": 13.5, "unit": "µM"}, {"measurement": "IC50", "setting": "COLO 205", "value": 73.5, "unit": "µM"}, {"measurement": "IC50", "setting": "A549 [4]", "value": 28.5, "unit": "µM"}, {"measurement": "IC50", "setting": "Pyruvate kinase PKM", "value": 0.05, "unit": "µM"}]}
{"compound": "c1ccc([Se]Cc2cn3cccnc3n2)cc1", "values": [{"measurement": "MIC", "setting": "Candida albicans [5]", "value": 36, "unit": "µg/mL"}, {"measurement": "MIC", "setting": "Kluyveromyces marxianus [6]", "value": "> 36", "unit": "µg/mL"}, {"measurement": "MIC", "setting": "Cryptococcus neoformans", "value": "> 36", "unit": "µg/mL"}, {"measurement": "MIC", "setting": "Aspergillus niger", "value": "> 36", "unit": "µg/mL"}, {"measurement": "MIC", "setting": "Neurospora crassa", "value": 18, "unit": "µg/mL"}, {"measurement": "fractional inhibitory concentration index (FICI)", "setting": "Kluyveromyces marxianus [7]", "value": 3.6}]}
{"compound": "Cc1c(C(=O)NCc2cocn2)cnn1C(=O)Nc1ccn2cc(-c3ccccc3)nc2n1", "values": [{"measurement": "IC50", "setting": "[1]", "value": 0.001, "unit": "µM"}]}
{"compound": "CC(=O)c1ccc(C(=O)N2CCN(CC(=O)c3cnc4ncccn34)CC2)cc1", "values": [{"measurement": "IC50", "setting": "MCF7", "value": 11.8, "unit": "µM"}, {"measurement": "IC50", "setting": "COLO 205", "value": 104, "unit": "µM"}, {"measurement": "IC50", "setting": "A549 [4]", "value": 35.4, "unit": "µM"}, {"measurement": "IC50", "setting": "Pyruvate kinase PKM", "value": 0.73, "unit": "µM"}]}
{"compound": "O=C(c1ccc(Cl)cc1)c1cnc2ncccn12", "values": [{"measurement": "MIC", "setting": "Candida albicans [8]", "value": 0.25, "unit": "µg/mL"}, {"measurement": "MIC", "setting": "Candida dubliniensis", "value": 0.5, "unit": "µg/mL"}, {"measurement": "MIC", "setting": "[9]", "value": 0.062, "unit": "µg/mL"}, {"measurement": "MIC", "setting": "Kluyveromyces marxianus [10]", "value": 0.125, "unit": "µg/mL"}, {"measurement": "MIC", "setting": "Nakaseomyces glabratus", "value": 1, "unit": "µg/mL"}, {"measurement": "MIC", "setting": "Pichia kudriavzevii", "value": 0.5, "unit": "µg/mL"}, {"measurement": "MIC", "setting": "Candida tropicalis", "value": 0.031, "unit": "µg/mL"}]}
{"compound": "O=C(CN1CCN(c2ccc(Cl)cc2)CC1)c1cnc2ncccn12", "values": [{"measurement": "IC50", "setting": "MCF7", "value": 12.9, "unit": "µM"}, {"measurement": "IC50", "setting": "COLO 205", "value": 28, "unit": "µM"}, {"measurement": "IC50", "setting": "A549 [4]", "value": 37.5, "unit": "µM"}, {"measurement": "IC50", "setting": "Pyruvate kinase PKM", "value": 0.79, "unit": "µM"}]}
{"compound": "CC(=O)NC1(Cc2ccc(Br)cc2)C(=O)N=C2N=CC=CN21", "note": "(centres undefined)", "values": [{"measurement": "IC50", "setting": "A549 [3]", "value": 2.1, "unit": "µM"}]}
{"compound": "Nc1cc(N)nc(-c2nc(Cc3ccccc3F)c3ncccn23)n1", "values": [{"measurement": "IC50", "setting": "Aorta", "value": 1.05, "unit": "µM"}]}
{"compound": "O=C(c1ccc(F)cc1)c1cnc2ncccn12", "values": [{"measurement": "MIC", "setting": "Candida albicans [8]", "value": 0.062, "unit": "µg/mL"}, {"measurement": "MIC", "setting": "Candida dubliniensis", "value": 0.5, "unit": "µg/mL"}, {"measurement": "MIC", "setting": "[9]", "value": 0.25, "unit": "µg/mL"}, {"measurement": "MIC", "setting": "Kluyveromyces marxianus [10]", "value": 0.125, "unit": "µg/mL"}, {"measurement": "MIC", "setting": "Nakaseomyces glabratus", "value": 0.031, "unit": "µg/mL"}, {"measurement": "MIC", "setting": "Pichia kudriavzevii", "value": 0.5, "unit": "µg/mL"}, {"measurement": "MIC", "setting": "Candida tropicalis", "value": 0.25, "unit": "µg/mL"}]}
{"compound": "Cc1ccc([Se]Cc2cn3cccnc3n2)cc1", "values": [{"measurement": "MIC", "setting": "Candida albicans [5]", "value": "> 37.8", "unit": "µg/mL"}, {"measurement": "MIC", "setting": "Kluyveromyces marxianus [6]", "value": 18.9, "unit": "µg/mL"}, {"measurement": "MIC", "setting": "Cryptococcus neoformans", "value": "> 36", "unit": "µg/mL"}, {"measurement": "MIC", "setting": "Aspergillus niger", "value": "> 37.8", "unit": "µg/mL"}, {"measurement": "MIC", "setting": "Neurospora crassa", "value": 18.9, "unit": "µg/mL"}]}
{"compound": "c1ccc(-c2ccc(-c3cn4cccnc4n3)cc2)cc1", "values": [{"measurement": "inhibition at 100 µM", "setting": "Albumin", "value": 96.4, "unit": "%"}]}
{"compound": "N#Cc1ccc(C(=O)c2cnc3ncccn23)cc1", "values": [{"measurement": "MIC", "setting": "Candida albicans [8]", "value": 0.25, "unit": "µg/mL"}, {"measurement": "MIC", "setting": "Candida dubliniensis", "value": 0.062, "unit": "µg/mL"}, {"measurement": "MIC", "setting": "[9]", "value": 0.031, "unit": "µg/mL"}, {"measurement": "MIC", "setting": "Kluyveromyces marxianus [10]", "value": 0.125, "unit": "µg/mL"}, {"measurement": "MIC", "setting": "Nakaseomyces glabratus", "value": 0.065, "unit": "µg/mL"}, {"measurement": "MIC", "setting": "Pichia kudriavzevii", "value": 0.25, "unit": "µg/mL"}, {"measurement": "MIC", "setting": "Candida tropicalis", "value": 0.062, "unit": "µg/mL"}]}
